Laboratory results: paper PMC6010053, “The hop-derived compounds xanthohumol, isoxanthohumol and 8-prenylnaringenin are tight-binding inhibitors of human aldo-keto reductases 1B1 and 1B10” (Journal of Enzyme Inhibition and Medicinal Chemistry, 2018)

Assays:
AKR1B1 [1] = test system: AKR1B1; design: method as in earlier work; details: glyceraldehyde as substrate; cited from earlier work
AKR1B1 [2] = molecular target: T1, AKR1B1 (Homo sapiens, UniProt P15121); assay: AKR1B1-catalysed glyceraldehyde (GA) reduction, NADPH absorbance decrease at 340 nm; assay type: biochemical; details: for IC50 / Ki: GA at KM 50 μM, mean ± SD; for IC50: 200 μM NADPH, pH 7.4, 37 °C, at least three experiments; for Ki: Morrison equation for tight-binding inhibitors; for mode of inhibition with respect to the co-factor binding site for NADPH: glyceraldehyde reduction, IC50 as a function of NADPH concentration
T1 construct: 6xHis; made in house; host or cells: E. coli BL21 (DE3)
Description: (§1) The recombinant enzymes AKR1A1, AKR1B1 and AKR1B10 were prepared in an Escherichia coli expression system according to previously published methods: AKR1A1 was a gentle gift from Prof. Dr. Vladimir Wsol[63]; AKR1B1 was a friendly gift from Dr. Nina Kassner; information about production and purification of AKR1B10 has been published before. Genetic information on the specific inserts of all obtained plasmids was verified by sequencing (MWG Eurofins). The plasmids were then transformed into E. coli BL21 (DE3) cells. For over-expression of 6 × His-tagged enzymes, a 400-ml culture (containing the appropriate antibiotic; plasmid dependent) was grown to an optical density of 0.6 at 600 nm at 37 °C. Protein over-expression was induced by adding isopropyl-1-thio-galactopyranoside (IPTG) to the culture medium (final concentration of 1 mM). After 3 h, cells were harvested by centrifugation (6000 g, 15 min) and re-suspended in 20 ml PBS-I buffer (20 mM NaH2PO4, 500 mM NaCl, 10 mM imidazole, pH 7.4). Cell disruption was performed by ultrasonication with cooling on ice, to avoid heating. The sample was subsequently centrifuged at 100,000 g at 4 °C for 1 h. The obtained supernatants, containing the target protein were purified using Ni-affinity chromatography on an ÄKTA-Purifier System (Amersham Pharmacia Biotech, Uppsala, Sweden). Purification progress was monitored by SDS-PAGE of the obtained fractions (not shown). Enzyme concentrations were determined using a Qubit 2.0 fluorometric quantitation system (Life Technologies, Carlsbad, CA, USA) according to the manufacturer’s instructions.
Catalytic properties were determined by measuring the decrease in absorbance at 340 nm at 37 °C (Cary 100 scan photometer, Varian, Pal Alto, CA, USA). […] Final enzyme concentrations in the assay ranged from 583 nM (AKR1B10) to 712 nM (AKR1B1). For inhibitor selectivity studies on AKR1A1, AKR1B1 and AKR1B10 stock solutions of the inhibitors XN, XI and 8-PN were prepared in dimethyl sulfoxide (DMSO). The final concentration of DMSO in the assay was ≤0.5%. Activity measurements were started without pre-incubation by adding an appropriate amount of enzyme. When collecting data for dose–response curves, initial velocities of the glyceraldehyde reduction (concentration at KM; enzyme specific) in the presence of inhibitors were assayed as described above. The percentage of inhibition was calculated considering the activity in the absence of inhibitor to be 100%.
(§2) Initially, the half maximal inhibitory concentrations (IC50 values) were determined for each inhibitor in the presence of each enzyme, using the shared substrate glyceraldehyde (set to their specific Km; 3.6 mM, 50 µM and 4 mM for AKR1A1, AKR1B1 and AKR1B10, respectively) to assess specificity among the structurally similar members of the AKR-superfamily. For IC50 determination, experimental data were normalised and fitted to a sigmoidal curve as implemented in GraphPad6 (GraphPad Software Inc., La Jolla, CA, USA). Whenever tight-binding inhibition was observed, the inhibition constant Ki was determined by fitting inhibition data to the Morrison equation as implemented in GraphPad Prism6 (GraphPad Software Inc., La Jolla, CA, USA)[65], using non-linear regression.

AKR1B10 [3] = molecular target: T2, AKR1B10 (Homo sapiens, UniProt O60218); assay: AKR1B10-catalysed glyceraldehyde (GA) reduction, NADPH absorbance decrease at 340 nm; assay type: biochemical; details: GA at KM 4 mM, mean ± SD; for IC50: 200 μM NADPH, pH 7.4, 37 °C, at least three experiments; for Ki: Morrison equation for tight-binding inhibitors
T2 construct: 6xHis; made in house; host or cells: E. coli BL21 (DE3)
T2 sequence (O60218 whole entry): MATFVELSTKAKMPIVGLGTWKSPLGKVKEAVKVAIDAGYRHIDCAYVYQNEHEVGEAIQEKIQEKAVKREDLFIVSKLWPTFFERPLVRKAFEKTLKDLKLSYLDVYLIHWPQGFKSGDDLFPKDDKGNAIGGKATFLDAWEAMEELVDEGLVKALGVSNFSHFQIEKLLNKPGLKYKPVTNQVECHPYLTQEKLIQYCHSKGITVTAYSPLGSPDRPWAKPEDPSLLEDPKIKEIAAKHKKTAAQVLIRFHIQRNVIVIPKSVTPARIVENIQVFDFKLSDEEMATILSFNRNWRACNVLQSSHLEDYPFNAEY
Description: as §1
(§3) Catalytic properties were determined by measuring the decrease in absorbance at 340 nm at 37 °C (Cary 100 scan photometer, Varian, Pal Alto, CA, USA). A reaction mixture without inhibitor consisted of different concentrations of substrate (see Table 1 for details), 200 μM NADPH, 0.1 M NaH2PO4 buffer (pH 7.4) and an appropriate amount of enzyme in a total assay volume of 0.8 ml. Final enzyme concentrations in the assay ranged from 583 nM (AKR1B10) to 712 nM (AKR1B1). For inhibitor selectivity studies on AKR1A1, AKR1B1 and AKR1B10 stock solutions of the inhibitors XN, XI and 8-PN were prepared in dimethyl sulfoxide (DMSO). The final concentration of DMSO in the assay was ≤0.5%. Activity measurements were started without pre-incubation by adding an appropriate amount of enzyme. When collecting data for dose–response curves, initial velocities of the glyceraldehyde reduction (concentration at KM; enzyme specific) in the presence of inhibitors were assayed as described above. The percentage of inhibition was calculated considering the activity in the absence of inhibitor to be 100%.
as §2

AKR1A1 = molecular target: T3, AKR1A1 (Homo sapiens, UniProt P14550); assay: AKR1A1-catalysed glyceraldehyde reduction (inhibitor selectivity); assay type: biochemical
T3 construct: 6xHis; made in house; host or cells: E. coli BL21 (DE3)
T3 sequence (P14550 1-325): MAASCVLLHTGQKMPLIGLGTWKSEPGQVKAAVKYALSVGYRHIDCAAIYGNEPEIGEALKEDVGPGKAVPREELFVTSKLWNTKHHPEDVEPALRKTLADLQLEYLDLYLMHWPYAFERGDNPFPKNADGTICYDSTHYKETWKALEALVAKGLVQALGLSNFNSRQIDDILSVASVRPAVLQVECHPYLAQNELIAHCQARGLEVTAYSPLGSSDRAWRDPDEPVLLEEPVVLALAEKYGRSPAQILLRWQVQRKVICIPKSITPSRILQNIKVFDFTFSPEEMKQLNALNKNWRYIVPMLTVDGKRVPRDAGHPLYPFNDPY
Description: as §1
Catalytic properties were determined by measuring the decrease in absorbance at 340 nm at 37 °C (Cary 100 scan photometer, Varian, Pal Alto, CA, USA). A reaction mixture without inhibitor consisted of different concentrations of substrate (see Table 1 for details), 200 μM NADPH, 0.1 M NaH2PO4 buffer (pH 7.4) and an appropriate amount of enzyme in a total assay volume of 0.8 ml. […] The percentage of inhibition was calculated considering the activity in the absence of inhibitor to be 100%. […]

AKR1B10 [4] = molecular target: T2, AKR1B10; assay: AKR1B10-catalysed farnesal reduction (physiological substrate); assay type: biochemical; details: for Ki / IC50: farnesal at KM 5 μM, mean ± SD; for Ki: Morrison equation; for IC50: at least three experiments; for mode of inhibition: with respect to the substrate farnesal, IC50 at five substrate concentrations
Description: as §3, §2
(§4) In order to verify the inhibitory potency, enzyme-specific physiological substrates for AKR1B1 (glucose, KM = 32 mM) and AKR1B10 (farnesal; KM = 5 µM) were used to determine inhibition parameters. Enzyme inhibition parameters were assayed as described above. The inhibition mechanism of each compound for the respective enzymes was analysed by plotting IC50 values at different substrate concentrations (at least five inhibitor and substrate concentrations)[65]^,[66]. All data obtained were plotted and analysed using GraphPad Prism6 (GraphPad Software Inc., La Jolla, CA, USA).

AKR1B1 [5] = molecular target: T1, AKR1B1; assay: AKR1B1-catalysed glucose reduction (physiological substrate); assay type: biochemical; details: for Ki / IC50: glucose at KM 32 mM, mean ± SD; for Ki: Morrison equation; for IC50: at least three experiments; for mode of inhibition: with respect to the substrate glucose, IC50 at five substrate concentrations
Description: as §3, §2, §4

AKR1B10 [6] = test system: AKR1B10; design: method as in PMID 26844556, PMID 27359042, PMID 28003428, PMID 26968129, PMID 21561086; details: selective inhibitors identified so far; cited from earlier work

Compound | IC50 (AKR1B1 [2]) | Ki (AKR1B1 [2]) | mode of inhibition with respect to the co-factor binding site for NADPH (AKR1B1 [2]) | inhibitory potency, times greater as compared to that of 6-PN (AKR1B1 [2]; ratio of AKR1B1 IC50 values, glyceraldehyde as substrate) | IC50 (AKR1B10 [3]) | Ki (AKR1B10 [3]) | effect on the activity of AKR1A1 (AKR1A1) | Ki (AKR1B10 [4]) | IC50 (AKR1B10 [4]) | mode of inhibition (AKR1B10 [4]) | Ki (AKR1B1 [5]) | IC50 (AKR1B1 [5]) | mode of inhibition (AKR1B1 [5]) | IC50 (AKR1B1 [1]) | IC50 (AKR1B10 [6])
CC(C)=CCc1c(O)cc2c(c1O)C(=O)C[C@@H](c1ccc(O)cc1)O2 [6-PN, 6-prenylnaringenin] |  |  |  |  |  |  |  |  |  |  |  |  |  | 6.2 µM | 
C[C@@]12CCC[C@H]1[C@@H]1C[C@@H](O)[C@@]3(O)C[C@@H](O)CC[C@]3(CO)[C@H]1CC2 [Androst-3β,5α,6β,19-tetrol] |  |  |  |  |  |  |  |  |  |  |  |  |  |  | 0.86 µM
CC1(C)CC[C@]2(C(=O)O)CC[C@]3(C)C(=CC[C@@H]4[C@@]5(C)CC[C@H](O)C(C)(C)[C@@H]5CC[C@]43C)[C@@H]2C1 [oleanolic acid] |  |  |  |  |  |  |  |  |  |  |  |  |  |  | 0.09 µM

Further lines, with some results ahead:

IC50 (AKR1B1 [2]) | Ki (AKR1B1 [2]) | mode of inhibition with respect to the co-factor binding site for NADPH (AKR1B1 [2]) | inhibitory potency, times greater as compared to that of 6-PN (AKR1B1 [2]; ratio of AKR1B1 IC50 values, glyceraldehyde as substrate) | IC50 (AKR1B10 [3]) | Ki (AKR1B10 [3]) | effect on the activity of AKR1A1 (AKR1A1) | Ki (AKR1B10 [4]) | IC50 (AKR1B10 [4]) | mode of inhibition (AKR1B10 [4]) | Ki (AKR1B1 [5]) | IC50 (AKR1B1 [5]) | mode of inhibition (AKR1B1 [5]) | Compound | IC50 (AKR1B1 [1]) | IC50 (AKR1B10 [6])
0.81 ± 0.03 µM | 0.3 ± 0.03 µM | non-competitive | 7.6 times | 0.99 ± 0.04 µM | 0.52 ± 0.05 µM | not affecting | 1.95 ± 0.12 µM | 3.96 ± 0.17 µM | uncompetitive | 0.71 ± 0.09 µM | 1.87 ± 0.09 µM | uncompetitive | CC(C)=CCc1c(O)cc(O)c2c1O[C@H](c1ccc(O)cc1)CC2=O [8-PN, 8-prenylnaringenin] |  | 
0.57 ± 0.02 µM | 0.17 ± 0.02 µM | uncompetitive |  | 1.09 ± 0.06 µM | 0.52 ± 0.05 µM | not affecting | 2.25 ± 0.24 µM | 4.24 ± 0.23 µM | uncompetitive | 0.34 ± 0.06 µM | 0.88 ± 0.05 µM | uncompetitive | COc1cc(O)c(CC=C(C)C)c2c1C(=O)CC(c1ccc(O)cc1)O2 (stereo not shown) [IX, isoxanthohumol] |  | 
9.11 ± 1.02 µM | 5.29 ± 0.95 µM | non-competitive |  | 6.56 ± 0.69 µM | 4.56 ± 0.98 µM | not affecting | 20.1 ± 3.73 µM | 41.4 ± 6.86 µM | uncompetitive | 15.1 ± 1.65 µM | 29.2 ± 2.3 µM | uncompetitive | COc1cc(O)c(CC=C(C)C)c(O)c1C(=O)/C=C/c1ccc(O)cc1 [XN, xanthohumol] |  | 
